Test results taken from ChEMBL document CHEMBL4765295, “Synthesis, pharmacological profile and 2D-QSAR studies of curcumin-amino acid conjugates as potential drug candidates” (Eur J Med Chem, 2020).
Where “and” joins values, the source holds several entries; their conditions need not be identical. Equal entries are not always repeated.

Assays:
Rattus norvegicus [1] = assay: Antiinflammatory activity in Wistar rat model of carrageenan-induced paw edema assessed as reduction in thickness of paw edema at 10 mg/kg, ip pretreated for 1 hr followed by carrageenan challenge and measured after 1 hr (reference value: 2.41 +/-0.05 mm); type: functional; conditions: time 1 hr after carrageenan
Rattus norvegicus [2] = assay: Anti-inflammatory activity in Wistar rat assessed as inhibition of carrageenan-induced paw edema at 10 mg/kg, ip pretreated for 1 hr followed by carrageenan challenge and measured after 1 hr relative to control (reference value: 0.00 +/-0.02 %); type: functional; conditions: time 2 hrs
Rattus norvegicus [3] = assay: Antiinflammatory activity in Wistar rat model of carrageenan-induced paw edema assessed as reduction in thickness of paw edema at 10 mg/kg, ip pretreated for 1 hr followed by carrageenan challenge and measured after 2 hrs (reference value: 2.06 +/-0.09 mm); type: functional; conditions: time 3 hrs
Rattus norvegicus [4] = assay: Anti-inflammatory activity in Wistar rat assessed as inhibition of carrageenan-induced paw edema at 10 mg/kg, ip pretreated for 1 hr followed by carrageenan challenge and measured after 2 hr relative to control (reference value: 0.00 +/-0.03 %); type: functional; conditions: time 3 hrs
Rattus norvegicus [5] = assay: Antiinflammatory activity in Wistar rat model of carrageenan-induced paw edema assessed as reduction in thickness of paw edema at 10 mg/kg, ip pretreated for 1 hr followed by carrageenan challenge and measured after 3 hrs (reference value: 1.79 +/-0.07 mm); type: functional; conditions: time 4 hrs
Rattus norvegicus [6] = assay: Anti-inflammatory activity in Wistar rat assessed as inhibition of carrageenan-induced paw edema at 10 mg/kg, ip pretreated for 1 hr followed by carrageenan challenge and measured after 3 hr relative to control (reference value: 0.00 +/-0.1 %); type: functional; conditions: time 4 hrs
Rattus norvegicus [7] = assay: Antiinflammatory activity in Wistar rat model of carrageenan-induced paw edema assessed as reduction in thickness of paw edema at 10 mg/kg, ip pretreated for 1 hr followed by carrageenan challenge and measured after 4 hrs (reference value: 1.40 +/-0.10 mm); type: functional; conditions: time 5 hrs
Rattus norvegicus [8] = assay: Anti-inflammatory activity in Wistar rat assessed as inhibition of carrageenan-induced paw edema at 10 mg/kg, ip pretreated for 1 hr followed by carrageenan challenge and measured after 4 hr relative to control (reference value: 0.00 +/-0.4 %); type: functional; conditions: time 5 hrs
Rattus norvegicus [9] = assay: Antiinflammatory activity in Wistar rat model of carrageenan-induced paw edema assessed as reduction in thickness of paw edema at 10 mg/kg, ip pretreated for 1 hr followed by carrageenan challenge and measured after 24 hrs (reference value: 0.83 +/-0.08 mm); type: functional; conditions: time 25 hrs
Rattus norvegicus [10] = assay: Anti-inflammatory activity in Wistar rat assessed as inhibition of carrageenan-induced paw edema at 10 mg/kg, ip pretreated for 1 hr followed by carrageenan challenge and measured after 24 hr relative to control (reference value: 0.00 +/-0.3 %); type: functional; conditions: time 25 hrs
Rattus norvegicus [11] = assay: Anti-inflammatory activity in Wistar rat assessed as inhibition of carrageenan-induced paw edema at 10 mg/kg, ip pretreated for 1 hr followed by carrageenan challenge and measured after 4 hr relative to indomethacin; type: functional; conditions: time 5 hrs
[12] = Ulcerogenic activity in fasted albino mouse assessed as incidence of gastric ulceration at 10 mg/kg, po for 3 days (reference value: 0 %); type: toxicity, organism-based; conditions: in vivo, 72 h, time 3 day
[13] = Ulcerogenic activity in fasted albino mouse assessed as average number of ulcers in gastric mucosa at 10 mg/kg, po for 3 days (reference value: 0); type: toxicity, organism-based; conditions: in vivo, 72 h, time 3 day
[14] = Ulcerogenic activity in fasted albino mouse assessed as average severity of ulcers in gastric mucosa at 10 mg/kg, po for 3 days (reference value: 0); type: toxicity, organism-based; conditions: in vivo, 72 h, time 3 day
[15] = Ulcerogenic activity in fasted albino mouse assessed as ulcer index in gastric mucosa at 10 mg/kg, po for 3 days (reference value: 0); type: toxicity, organism-based; conditions: in vivo, 72 h, time 3 day
Splenocyte [16] = assay: Immunomodulatory activity in Swiss albino mouse splenocytes assessed as cell viability at 10 uM by measuring stimulation index incubated for 72 hrs in presence of mitogenic stimulus phytohaemagglutinin by MTT assay (reference value: 1.00 +/- 0.24); type: functional
Splenocyte [17] = assay: Immunomodulatory activity in Swiss albino mouse splenocytes assessed as cell viability at 10 uM by measuring inhibition of stimulation index incubated for 72 hrs in presence of mitogenic stimulus phytohaemagglutinin by MTT assay relative to indomethacin; type: functional; conditions: read-out: Activity
Peritoneal macrophage [18] = assay: Antiinflammatory activity in […] mouse Peritoneal macrophages assessed as reduction in LPS-induced NO production by measuring reduction in stimulation index at 10 uM preincubated for 1 hr followed by LPS stimulation measured after 24 hrs by Griess method (reference value: 27.31 +/- 2.56 uM); type: functional; conditions: time 25 hrs
Peritoneal macrophage [19] = assay: Antiinflammatory activity in […] mouse Peritoneal macrophages assessed as inhibition of LPS-induced NO production at 10 uM preincubated for 1 hr followed by LPS stimulation measured after 24 hrs by Griess method relative to control (reference value: 0.0 %); type: functional; design: scale not given: the % may be the effect or the level left; conditions: time 25 hrs
Mus musculus [20] = assay: Analgesic activity in albino mouse assessed reduction in acetic acid-induced abdominal writhing by measuring writing reflex at 10 mg/kg, ip pretreated for 1 hr followed by acetic acid challenge and measured starting 5 mins post acetic acid challenge for 10 mins (reference value: 42.4 +/- 1.02); type: functional; conditions: time 75 min, 1.25 h
Mus musculus [21] = assay: Analgesic activity in albino mouse assessed protection against acetic acid-induced abdominal writhing at 10 mg/kg, ip pretreated for 1 hr followed by acetic acid challenge and measured starting 5 mins post acetic acid challenge for 10 mins relative to control (reference value: 0 %); type: functional; conditions: time 75 min, 1.25 h
Mus musculus [22] = assay: Analgesic activity in albino mouse assessed protection against acetic acid-induced abdominal writhing at 10 mg/kg, ip pretreated for 1 hr followed by acetic acid challenge and measured starting 5 mins post acetic acid challenge for 10 mins relative to indomethacin; type: functional; conditions: time 75 min, 1.25 h
Mus musculus [23] = assay: Analgesic activity in albino mouse assessed as forepaw licking/jumping latency time at 10 mg/kg, ip measured after 30 mins by hot plate test (reference value: 5.02 +/- 0.09 sec); type: functional; conditions: 0.5 h
Mus musculus [24] = assay: Analgesic activity in albino mouse assessed as protection at 10 mg/kg, ip measured after 30 mins by hot plate test (reference value: 0 %); type: functional; conditions: 0.5 h
Mus musculus [25] = assay: Analgesic activity in albino mouse assessed as forepaw licking/jumping latency time at 10 mg/kg, ip measured after 60 mins by hot plate test (reference value: 3.42 +/- 0.03 sec); type: functional; conditions: 1 h
Mus musculus [26] = assay: Analgesic activity in albino mouse assessed as protection at 10 mg/kg, ip measured after 60 mins by hot plate test (reference value: 0 %); type: functional; conditions: 1 h
Mus musculus [27] = assay: Analgesic activity in albino mouse assessed as forepaw licking/jumping latency time at 10 mg/kg, ip measured after 90 mins by hot plate test (reference value: 2.72 +/- 0.01 sec); type: functional; conditions: 1.5 h
Mus musculus [28] = assay: Analgesic activity in albino mouse assessed as protection at 10 mg/kg, ip measured after 90 mins by hot plate test (reference value: 0 %); type: functional; conditions: 1.5 h
Mus musculus [29] = assay: Analgesic activity in albino mouse assessed as forepaw licking/jumping latency time at 10 mg/kg, ip measured after 120 mins by hot plate test (reference value: 2.62 +/- 0.06 sec); type: functional; conditions: 2 h
Mus musculus [30] = assay: Analgesic activity in albino mouse assessed as protection at 10 mg/kg, ip measured after 120 mins by hot plate test (reference value: 0 %); type: functional; conditions: 2 h
Mus musculus [31] = assay: Analgesic activity in albino mouse assessed as protection at 10 mg/kg, ip measured after 120 mins by hot plate test relative to indomethacin; type: functional; conditions: 2 h
Staphylococcus aureus = assay: Antibacterial activity against Staphylococcus aureus ATCC 25923 incubated for 18 hrs by agar dilution method; type: functional
Streptococcus pyogenes = assay: Antibacterial activity against Streptococcus pyogenes ATCC 19615 incubated for 18 hrs by agar dilution method; type: functional
Salmonella typhimurium = assay: Antibacterial activity against Salmonella typhimurium ATCC 19430 incubated for 18 hrs by agar dilution assay; type: functional, Salmonella enterica subsp. enterica serovar Typhimurium; conditions: Salmonella enterica
Pseudomonas aeruginosa = assay: Antibacterial activity against Pseudomonas aeruginosa ATCC 27853 incubated for 18 hrs by agar dilution assay; type: functional
Candida albicans = assay: Antifungal activity against Candida albicans incubated for 18 to 24 hrs by CLSI method; type: functional; conditions: time 18-24 hrs
[32] = Toxicity in albino mouse assessed as induction of toxic symptoms at 50 to 100 mg/kg, ip measured after 24 hrs; type: organism-based; conditions: in vivo, dose 50-100 mg/kg

Work on `COc1cc(/C=C/C(=O)/C=C(O)/C=C/c2ccc(OC(=O)C(C)NC(=O)OCc3ccccc3)c(OC)c2)ccc1OC(=O)C(C)NC(=O)OCc1ccccc1` (configuration not stated) yielded an Activity (Rattus norvegicus [1]) of 0.67 mm, an inhibition in vivo at 10 mg/kg (Rattus norvegicus [2]) of 72% and an Activity (Rattus norvegicus [3]) of 0.26 mm. For the same compound, the inhibition in vivo at 10 mg/kg (Rattus norvegicus [4]) was 87%, the Activity (Rattus norvegicus [5]) was 0.05 mm and the inhibition in vivo at 10 mg/kg (Rattus norvegicus [6]) was 97%. It also gave an Activity (Rattus norvegicus [7]) of 0 mm, an inhibition in vivo at 10 mg/kg (Rattus norvegicus [8]) of 100% and an Activity (Rattus norvegicus [9]) of 0 mm. The inhibition in vivo at 10 mg/kg (Rattus norvegicus [10]) was 100%, the inhibition in vivo at 10 mg/kg (Rattus norvegicus [11]) was 115% and the Activity [12] was 3.33%. The Activity [13] was 0.67, the Activity [14] was 0.67 and the UI [15] was 4.67. The Activity_index (Splenocyte [16]) was 1.18, the viability at 10 µM (Splenocyte [17]) was 103% and the Activity (Peritoneal macrophage [18]) was 14.91 µM. It also gave an Activity (Peritoneal macrophage [19]) of 45.41%, an Activity (Mus musculus [20]) of 19.75 and an Activity (Mus musculus [21]) of 53.4%. The Activity (Mus musculus [22]) was 86.7%, the Time (Mus musculus [23]) was 6.26 s and the Activity (Mus musculus [24]) was 24.7%. For the same compound, the Time (Mus musculus [25]) was 5.24 s, the Activity (Mus musculus [26]) was 53.2% and the Time (Mus musculus [27]) was 3.22 s. It also gave an Activity (Mus musculus [28]) of 18.4%, a Time (Mus musculus [29]) of 3.12 s and an Activity (Mus musculus [30]) of 19.1%. The Activity (Mus musculus [31]) was 45.5%, the MIC (Staphylococcus aureus) was 0.5 µg/mL and 0.642 µM and the MIC (Streptococcus pyogenes) was 0.125 µg/mL and 0.161 µM. For the same compound, the MIC (Salmonella typhimurium) was 0.5 µg/mL and 0.642 µM, the MIC (Pseudomonas aeruginosa) was 0.25 µg/mL and 0.321 µM and the MIC (Candida albicans) was 0.5 µg/mL and 0.642 µM. The Activity [32] was “Non-Toxic”.
